According to article PMC3351140 (MedChemComm, 2011):
Substitutions are numbered along the chain they refer to. Where “and” joins values, the source holds several entries; their conditions need not be identical. Equal values may be shown once. Blank lines part the entries; values can stand above or below the molecule they belong to.

How the values were obtained:
[1] = Pharmacokinetics after intraperitoneal administration to mice; assay type: in vivo, male C57BL/6 mice
GCase [2] = biological target: T1, GCase (Homo sapiens, UniProt P04062); test: Thermofunctional stabilization of GCase; assay type: biochemical; settings: enzyme incubated at 51 °C for 60 minutes
T1 sequence (P04062 40-536): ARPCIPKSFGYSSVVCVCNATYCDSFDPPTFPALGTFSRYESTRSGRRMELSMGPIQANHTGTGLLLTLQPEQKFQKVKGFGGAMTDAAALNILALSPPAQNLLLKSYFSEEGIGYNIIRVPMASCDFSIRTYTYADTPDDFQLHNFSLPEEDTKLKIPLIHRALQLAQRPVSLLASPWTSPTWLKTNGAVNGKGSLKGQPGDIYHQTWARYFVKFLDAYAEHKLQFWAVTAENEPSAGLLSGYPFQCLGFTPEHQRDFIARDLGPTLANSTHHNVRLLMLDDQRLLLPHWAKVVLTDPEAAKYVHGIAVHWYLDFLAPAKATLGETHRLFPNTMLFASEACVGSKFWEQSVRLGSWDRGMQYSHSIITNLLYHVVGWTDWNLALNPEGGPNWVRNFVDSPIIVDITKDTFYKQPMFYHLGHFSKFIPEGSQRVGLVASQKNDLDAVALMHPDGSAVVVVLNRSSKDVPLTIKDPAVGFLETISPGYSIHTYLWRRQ

GCase [3] = biological target: T1, GCase; test: Isolated enzyme GCase assay; assay type: biochemical
[4] = Mouse liver microsome stability; assay type: in vitro ADME; settings: 60 minutes, in the presence of NADPH
[5] = system: fibroblasts from patients with genotype N370S/N370S; test: Translocation of N370S GCase to lysosomes, confocal microscopy; assay type: cell-based, human; settings: 1 μM compound, five days, vs vehicle
GCase [6] = biological target: T1, GCase; test: GCase inhibition with alternative substrates; assay type: biochemical
[7] = biological target: T2, N370S glucocerebrosidase (GCase) (Homo sapiens, UniProt P04062, N409S); test: N370S spleen; assay type: biochemical; settings: for IC50: N370S tissue homogenate, 4-methylumbelliferone β-D glucopyranoside substrate (blue substrate); for fold loss of activity vs 8a: compared with 8a
T2 sequence (P04062 40-536 N409S): T1 sequence (P04062 40-536) with N370S

human SST4 receptor = human SST4 receptor (Homo sapiens, UniProt P31391); test: human SST4 receptor binding affinity assay; settings: compared with 27
Chain of human SST4 receptor (P31391 whole entry): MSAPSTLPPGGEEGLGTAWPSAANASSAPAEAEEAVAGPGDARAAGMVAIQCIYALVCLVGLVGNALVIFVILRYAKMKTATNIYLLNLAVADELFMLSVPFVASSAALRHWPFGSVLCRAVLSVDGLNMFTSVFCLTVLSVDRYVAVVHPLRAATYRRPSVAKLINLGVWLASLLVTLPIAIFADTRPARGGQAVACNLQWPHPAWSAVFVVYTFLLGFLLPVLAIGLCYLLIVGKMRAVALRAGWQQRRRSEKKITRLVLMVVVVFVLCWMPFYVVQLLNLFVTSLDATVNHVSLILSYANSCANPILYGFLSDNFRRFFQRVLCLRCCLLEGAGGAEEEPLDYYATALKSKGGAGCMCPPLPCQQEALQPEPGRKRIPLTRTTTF

Structure (SMILES): CC(=O)NCCCNC(=S)NCCCN(Cc1ccc(Cl)cc1)c1ccc(Br)cn1 [13b]
IC50 [7]: inactive

Structure (SMILES): S=C(NCCCc1cnc[nH]1)NCCCN(Cc1ccc(Cl)cc1)c1ccc(Br)cc1 [compound 24]
fold more potent than compound 27 (GCase) ([7]; compared with 27): about 10 fold
fold less potent than 27 (SST4 binding) (human SST4 receptor): about 5 fold
co-localization of N370S GCase with LAMP-1 (lysosomes) [5]: Increased co-localization

Structure (SMILES): CCCCNC(=S)NCCCN(Cc1ccc(Cl)c(Cl)c1)c1ccc(Br)cn1 [compound 25]
IC50 [7]: inactive

Structure (SMILES): CN(CCCN(Cc1ccc(Cl)cc1)c1ccc(Br)cn1)C(=S)NCCCc1cnc[nH]1 [compound 26]
fold loss of activity vs 8a [7]: 2 fold

Structure (SMILES): CN(CCCc1cnc[nH]1)C(=S)NCCCN(Cc1ccc(Cl)cc1)c1ccc(Br)cn1 [compound 27]
fold loss of activity vs 8a [7]: 10 fold

Now from value to molecule, other results behind:

Plasma concentration, Mean ([1]; 30 mg/kg IP, 0 hr): BQL
Plasma concentration, individual ([1]; 30 mg/kg IP, 0 hr): BQL
Plasma concentration, individual ([1]; 30 mg/kg IP, 0.083 hr, listed as ML156 (8i)): 1820 ng/mL and 1410 ng/mL
Plasma concentration, individual ([1]; 30 mg/kg IP, 0.25 hr, listed as ML156 (8i)): 3010 ng/mL and 1640 ng/mL
Plasma concentration, individual ([1]; 30 mg/kg IP, 0.5 hr, listed as ML156 (8i)): 2270 ng/mL and 3270 ng/mL
Plasma concentration, individual ([1]; 30 mg/kg IP, 1 hr, listed as ML156 (8i)): 3770 ng/mL and 3150 ng/mL
Plasma concentration, individual ([1]; 30 mg/kg IP, 2 hr, listed as ML156 (8i)): 3840 ng/mL
Plasma concentration, individual ([1]; 30 mg/kg IP, 4 hr, listed as ML156 (8i)): 2030 ng/mL and 2570 ng/mL
Plasma concentration, individual ([1]; 30 mg/kg IP, 8 hr, listed as ML156 (8i)): 1190 ng/mL and 357 ng/mL and 714 ng/mL
Plasma concentration, individual ([1]; 30 mg/kg IP, 12 hr, listed as ML156 (8i)): 127 ng/mL and 80.7 ng/mL
Plasma concentration, individual ([1]; 30 mg/kg IP, 24 hr, listed as ML156 (8i)): 12.6 ng/mL and 9.98 ng/mL
retention of GCase function after heating (GCase [2]): retain considerable function
inhibitory activity in isolated enzyme assays (GCase [3]): displayed inhibitory activity
parent molecule remaining [4]: 58%
co-localization of N370S GCase with LAMP-1 (lysosomes) [5]: Increased co-localization
inhibition of hydrolysis of resorufin-β-glucopyranoside (red substrate) (GCase [6]): effectively inhibited
Structure (SMILES): S=C(NCCCc1c[nH]cn1)NCCCN(Cc1ccc(Cl)c(Cl)c1)c1ccc(Br)cn1 [8i]
brain exposure ([1]; brain, additional pharmacokinetic studies): reasonable levels of the compound also reached the brain

retention of GCase function after heating (GCase [2]): retain considerable function
Structure (SMILES): OC[C@H]1CNC[C@@H](O)[C@@H]1O [Isofagomine, reference compound]
